The supplement of paper PMC10307832

Experiments:
Test in all cases: relative viability (nuclei count vs DMSO), 5 days (fraction); higher = more cells survive
[1] = test system: NCI-H2085
In short: (§1)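 Dosing by pin tool came one day after lung cancer cell lines were seeded in 1536-well plates, using either one drug or a fixed anchor-drug dose plus five library-drug doses (not always all listed) in √10 steps. After 5 days, nuclei were counted on 4× images. Relative viability is treated-well nuclei count divided by vehicle-well nuclei count, and values are medians of duplicate plates.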

[2] = test system: LXF-289
In short: as §1

[3] = test system: NCI-H1993
In short: as §1

[4] = test system: ABC-1
In short: as §1

[5] = test system: CAL-12T
In short: as §1

[6] = test system: HCC-15
In short: as §1

[7] = test system: EPLC-272H
In short: as §1

[8] = test system: HCC-78
In short: as §1

[9] = test system: NCI-H2126
In short: as §1

[10] = test system: NCI-H1755
In short: as §1

[11] = test system: NCI-H358
In short: as §1

[12] = test system: NCI-H322M
In short: as §1

[13] = test system: NCI-H441
In short: as §1

[14] = test system: ChaGo-K-1
In short: as §1

[15] = test system: NCI-H1915
In short: as §1

[16] = test system: NCI-H1666
In short: as §1

[17] = test system: NCI-H3122
In short: as §1

[18] = test system: NCI-H1975
In short: as §1

[19] = test system: EMC-BAC-2
In short: as §1

[20] = test system: COR-L 105
In short: as §1

[21] = test system: NCI-H2023
In short: as §1

[22] = test system: HOP-62
In short: as §1

[23] = test system: UMC-11
In short: as §1

`C=C1C(=O)O[C@@H](CCCCCCCC)[C@@H]1C(=O)O` [C-75] + N=C(N)NC(=N)NCCc1ccccc1 [Phenformin] (partner 250 µM) was tested, and the relative viability ([1]; first compound 0.08 µM) was 0.827, the relative viability ([1]; first compound 0.253 µM) was 0.693 and the relative viability ([1]; first compound 0.8 µM) was 0.629. For the same compound, the relative viability ([1]; first compound 2.53 µM) was 0.63, the relative viability ([1]; first compound 8 µM) was 0.67 and the relative viability ([2]; first compound 0.08 µM) was 0.504. The relative viability ([2]; first compound 0.253 µM) was 0.543, the relative viability ([2]; first compound 0.8 µM) was 0.514 and the relative viability ([2]; first compound 2.53 µM) was 0.452. For the same compound, the relative viability ([2]; first compound 8 µM) was 0.507, the relative viability ([3]; first compound 0.08 µM) was 0.528 and the relative viability ([3]; first compound 0.253 µM) was 0.574. It also gave a relative viability ([3]; first compound 0.8 µM) of 0.476, a relative viability ([3]; first compound 2.53 µM) of 0.46 and a relative viability ([3]; first compound 8 µM) of 0.506. The relative viability ([4]; first compound 0.08 µM) was 0.209, the relative viability ([4]; first compound 0.253 µM) was 0.289 and the relative viability ([4]; first compound 0.8 µM) was 0.231. For the same compound, the relative viability ([4]; first compound 2.53 µM) was 0.19, the relative viability ([4]; first compound 8 µM) was 0.199 and the relative viability ([5]; first compound 0.08 µM) was 0.545. The relative viability ([5]; first compound 0.253 µM) was 0.746, the relative viability ([5]; first compound 0.8 µM) was 0.567 and the relative viability ([5]; first compound 2.53 µM) was 0.556. For the same compound, the relative viability ([5]; first compound 8 µM) was 0.515, the relative viability ([6]; first compound 0.08 µM) was 0.489 and the relative viability ([6]; first compound 0.253 µM) was 0.469. For the same compound, the relative viability ([6]; first compound 0.8 µM) was 0.42, the relative viability ([6]; first compound 2.53 µM) was 0.377 and the relative viability ([6]; first compound 8 µM) was 0.446. It also gave a relative viability ([7]; first compound 0.08 µM) of 0.33, a relative viability ([7]; first compound 0.253 µM) of 0.281 and a relative viability ([7]; first compound 0.8 µM) of 0.276. The relative viability ([7]; first compound 2.53 µM) was 0.28, the relative viability ([7]; first compound 8 µM) was 0.271 and the relative viability ([8]; first compound 0.08 µM) was 0.844. For the same compound, the relative viability ([8]; first compound 0.253 µM) was 0.849, the relative viability ([8]; first compound 0.8 µM) was 0.544 and the relative viability ([8]; first compound 2.53 µM) was 0.595. It also gave a relative viability ([8]; first compound 8 µM) of 0.625, a relative viability ([9]; first compound 0.08 µM) of 0.505 and a relative viability ([9]; first compound 0.253 µM) of 0.558. For the same compound, the relative viability ([9]; first compound 0.8 µM) was 0.501, the relative viability ([9]; first compound 2.53 µM) was 0.48 and the relative viability ([9]; first compound 8 µM) was 0.515. For the same compound, the relative viability ([10]; first compound 0.08 µM) was 0.633, the relative viability ([10]; first compound 0.253 µM) was 0.587 and the relative viability ([10]; first compound 0.8 µM) was 0.577. For the same compound, the relative viability ([10]; first compound 2.53 µM) was 0.529, the relative viability ([10]; first compound 8 µM) was 0.607 and the relative viability ([11]; first compound 0.08 µM) was 0.306. It also gave a relative viability ([11]; first compound 0.253 µM) of 0.328, a relative viability ([11]; first compound 0.8 µM) of 0.296 and a relative viability ([11]; first compound 2.53 µM) of 0.326. It also gave a relative viability ([11]; first compound 8 µM) of 0.215, a relative viability ([12]; first compound 0.08 µM) of 0.749 and a relative viability ([12]; first compound 0.253 µM) of 0.886. It also gave a relative viability ([12]; first compound 0.8 µM) of 0.781, a relative viability ([12]; first compound 2.53 µM) of 0.718 and a relative viability ([12]; first compound 8 µM) of 0.789. The relative viability ([13]; first compound 0.08 µM) was 0.784, the relative viability ([13]; first compound 0.253 µM) was 0.725 and the relative viability ([13]; first compound 0.8 µM) was 0.784. For the same compound, the relative viability ([13]; first compound 2.53 µM) was 0.672, the relative viability ([13]; first compound 8 µM) was 0.787 and the relative viability ([14]; first compound 0.08 µM) was 0.461. The relative viability ([14]; first compound 0.253 µM) was 0.538, the relative viability ([14]; first compound 0.8 µM) was 0.453 and the relative viability ([14]; first compound 2.53 µM) was 0.414. The relative viability ([14]; first compound 8 µM) was 0.494, the relative viability ([15]; first compound 0.08 µM) was 0.361 and the relative viability ([15]; first compound 0.253 µM) was 0.375. For the same compound, the relative viability ([15]; first compound 0.8 µM) was 0.368, the relative viability ([15]; first compound 2.53 µM) was 0.318 and the relative viability ([15]; first compound 8 µM) was 0.325. The relative viability ([16]; first compound 0.08 µM) was 0.586, the relative viability ([16]; first compound 0.253 µM) was 0.602 and the relative viability ([16]; first compound 0.8 µM) was 0.56. For the same compound, the relative viability ([16]; first compound 2.53 µM) was 0.559, the relative viability ([16]; first compound 8 µM) was 0.51 and the relative viability ([17]; first compound 0.08 µM) was 0.405. It also gave a relative viability ([17]; first compound 0.253 µM) of 0.406, a relative viability ([17]; first compound 0.8 µM) of 0.384 and a relative viability ([17]; first compound 8 µM) of 0.408. The relative viability ([18]; first compound 0.08 µM) was 0.403, the relative viability ([18]; first compound 0.253 µM) was 0.398 and the relative viability ([18]; first compound 0.8 µM) was 0.389. For the same compound, the relative viability ([18]; first compound 2.53 µM) was 0.345, the relative viability ([18]; first compound 8 µM) was 0.412 and the relative viability ([19]; first compound 0.08 µM) was 0.58. It also gave a relative viability ([19]; first compound 0.253 µM) of 0.478, a relative viability ([19]; first compound 0.8 µM) of 0.48 and a relative viability ([19]; first compound 2.53 µM) of 0.42. It also gave a relative viability ([19]; first compound 8 µM) of 0.448, a relative viability ([20]; first compound 0.08 µM) of 0.507 and a relative viability ([20]; first compound 0.253 µM) of 0.485. The relative viability ([20]; first compound 0.8 µM) was 0.547, the relative viability ([20]; first compound 2.53 µM) was 0.436 and the relative viability ([20]; first compound 8 µM) was 0.436. The relative viability ([21]; first compound 0.08 µM) was 0.394, the relative viability ([21]; first compound 0.253 µM) was 0.502 and the relative viability ([21]; first compound 0.8 µM) was 0.367. For the same compound, the relative viability ([21]; first compound 2.53 µM) was 0.384, the relative viability ([21]; first compound 8 µM) was 0.372 and the relative viability ([22]; first compound 0.08 µM) was 0.691. It also gave a relative viability ([22]; first compound 0.253 µM) of 0.718, a relative viability ([22]; first compound 0.8 µM) of 0.647 and a relative viability ([22]; first compound 2.53 µM) of 0.616. It also gave a relative viability ([22]; first compound 8 µM) of 0.601, a relative viability ([23]; first compound 0.08 µM) of 0.335 and a relative viability ([23]; first compound 0.253 µM) of 0.346. For the same compound, the relative viability ([23]; first compound 0.8 µM) was 0.325, the relative viability ([23]; first compound 2.53 µM) was 0.278 and the relative viability ([23]; first compound 8 µM) was 0.272.
